For one molecule, EC50 results are on record in patent US20060046966A1, “Antipicornaviral compounds and compositions, their pharmaceutical uses, and materials for their synthesis” (Agouron Pharmaceuticals, Inc., priority 1998, published 2006).

Structures are written as SMILES. Where two headings read alike, the source gives them in different places.

The subject of one experiment is HRV-14. The experiment can be described thus: Antirhinoviral H1-HeLa cell culture assay, HRV-14. It counts as cell-based, human rhinovirus. The settings on record: Rhinovirus B, HRV14, H1-HeLa, HRV serotype-14, H1-HeLa cells. The procedure, abridged: (§1)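 XTT cell-protection assay in H1-HeLa cells infected with rhinovirus or mock-infected, then incubated with compound for two days; formazan was read at 450/650 nm. EC50 is the concentration restoring infected-cell formazan to 50% of compound-free mock-infected cells; CC50 is the concentration halving formazan in mock-infected cells.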

Another experiment has as its system HRV (12). The experiment can be described thus: Antirhinoviral H1-HeLa cell culture assay, HRV serotype 12. The experiment is classed as cell-based. The following applies: Human rhinovirus sp., H1-HeLa cells, XTT. As to the method: (§2) In this cell protection assay, the ability of compounds to protect cells against HRV infection was measured by the XTT dye reduction method, which is described in Weislow et al., J. Natl. Cancer Inst. 1989, vol. 81, 577-586.
(§3) H1-HeLa cells were infected with HRV-14 at a multiplicity of infection (m.o.i.) of 0.13 (virus particles/cell) or mock-infected with medium only. Infected or mock-infected cells were resuspended at 8×10^5 cells per mL, and incubated with appropriate concentrations of the compounds to be tested. Two days later, XTT/PMS was added to test plates and the amount of formazan produced was quantified spectrophotometrically at 450/650 nm. The EC50 value was calculated as the concentration of compound that increased the percentage of formazan production in compound-treated, virus-infected cells to 50% of that produced by compound-free, mock-infected cells. The 50% cytotoxic dose (CC50) was calculated as the concentration of compound that decreased the percentage of formazan produced in compound-treated, mock-infected cells to 50% of that produced by compound-free, mock-infected cells. The therapeutic index (TI) was calculated by dividing the CC50 value by the EC50 value. […]

In a further experiment the test system is HRV (25). The experiment can be described thus: Antirhinoviral H1-HeLa cell culture assay, HRV serotype 25. The experiment is classed as cell-based. The following applies: Human rhinovirus sp., H1-HeLa cells, XTT. The procedure:
as §2, §3

For another experiment, the system named is HRV (10). In words: Antirhinoviral H1-HeLa cell culture assay, HRV serotype 10. The experiment is classed as cell-based, human rhinovirus. The following applies: Human rhinovirus sp., H1-HeLa, H1-HeLa cells, XTT. The method, boiled down:
as §1

In the case of `CCOC(=O)/C=C/[C@H](C[C@@H]1CCNC1=O)NC(=O)[C@@H](CC(=O)[C@@H](NC(=O)c1cc(C)on1)C(C)C)Cc1ccc(F)cc1` [Compound B-2, Ethyl-3-{(5′-Methylisoxazole-3′-carbonyl)-L-ValΨ(COCH2)-L-(4-F-Phe)-L-((S)-Pyrrol-Ala)}-E-Propenoate], the EC50 worked out at 5 nM in the experiment with HRV-14 (Table 1, XTT dye reduction, read-out: Cell Protection EC50); 5 nM with HRV-14 (Table 3, XTT, read-out: EC50); 50 nM with HRV (12); 30 nM with HRV (25); 20 nM in the experiment with HRV (10).
